Reference: patent publication US20070031356A1, “Beta-carotene modulation of gene expression” (priority 2005, published 2007)
“And” between values parts separate entries of the source, which are not always exact repeats. Equal entries are not always repeated. “Also recorded” adds a separate entry of the source.

How the values were obtained:
HaCaT cells [1] = details: cited from earlier work
[2] = β-carotene supplementation, rodents (e.g. Mathews-Roth, 1982); cited from earlier work
HaCaT cells [3] = assay: TaqMan QRT-PCR of key genes; format: cell-based, human
Procedure: Cells were supplemented with β-carotene for 2 days prior to UVA irradiation (270 kJ/m^2) either in normal PBS or D2O-PBS. Gene expression 5 hours after irradiation was determined by quantitative real time polymerase chain reaction. (“QRT-PCR”). Values are geometric mean±standard error of three experiments.
Key gene regulation was confirmed in three independent cell irradiation experiments using TaqMan® QRT-PCR as described (Wertz, 2004). In these experiments, cells were pretreated with 0.5, 1.5, or 3 μM β-carotene, to analyze for dose-dependent β-carotene effects. In addition, cells were irradiated either in D2O-containing PBS or in H2O-containing PBS, to analyze for the ^1O2 inducibility of genes.

caspase-3 = assay: Caspase-3 activity (CaspACE Assay System); format: cell-based, human
Procedure: Cells were supplemented with β-carotene for 2 days and prior to UVA irradiation (270 kJ/m^2). Caspase-3 activity was determined at 5 hours after irradiation. Values are mean±standard error of an experiment with four replicates.
Caspase-3 activity 5 hours after UVA irradiation was quantified in five separate experiments using the CaspACE™ Assay System (Promega/Catalys, Switzerland).

[4] = β-carotene concentration in culture medium during incubation; format: physicochemical; details: during the 24 hours of incubation, irrespective of the presence of cells
Procedure: (§1) β-carotene-containing medium was prepared as follows. Fresh all-E-β-carotene (DSM Nutritional Products, Kaiseraugst, Switzerland) stock solution in THF (containing 0.025% BHT; Fluka Chemie AG, Switzerland) was diluted 1:2 with ethanol and added to cell culture medium to a final concentration of 1.5 μM β-carotene. The solvent concentration in the medium was 0.5% for all treatments. β-carotene-containing medium was prepared fresh for the daily medium changes.

[5] = system: HaCaT human keratinocytes; assay: Affymetrix GeneChip microarray, gene regulation by β-carotene and/or UVA; format: cell-based
Procedure: UVA exposure is thought to cause skin aging mainly by singlet oxygen (^1O2)-dependent pathways. Using microarray hybridization the effect of pretreatment with the ^1O2 quencher β-carotene (1.5 μM) on prevention of UVA-induced gene regulation in HaCaT human keratinocytes was explored.
The cell culture experiments were carried out as described (Wertz, 2004). Briefly, a subclone of passage 65 HaCaT keratinocytes, selected for differentiation capacity, was used at passages 16 to 23 after subcloning. 2×10^5 cells were seeded per 60 millimeter dish. Starting the following day, the cells were pretreated for 2 days with β-carotene at 1.5 μM, a typical concentration in human plasma after moderate dietary supplementation (Thurmann, 2002).
as §1
On day 3 of the experiment, the cells were irradiated with a Hönle sun lamp Sol 500 (270 kJ/m^2; Dr. Hönle, Germany).
Five independent, factorially designed cell irradiation experiments were analyzed by microarray hybridization. For each experiment, one chip was hybridized per treatment condition. GeneChip® analysis was done as described in Siler, 2004, which is incorporated by reference as if recited in full herein. Gene regulation by β-carotene and/or UVA was calculated relative to placebo.
Changes in gene expression were included in further analysis only if the change factor was ≧0.5 or ≦−0.5, and if unpaired t-tests yielded p values ≦0.05. Upregulations by a change factor of ≧0.5 are labeled bold, downregulations by a change factor of ≦−0.5 are labeled bold italics. (Table 1.) To identify the pathways affected by the treatments functional information on the genes was retrieved from public literature databases.

[6] = cited from earlier work
[7] = UVA 270 kJ/m^2, 5 hours after irradiation
[8] = UVA 270 kJ/m^2 after 1.5 μM 2 days, vs placebo
[9] = unirradiated, 1.5 μM 2 days, vs placebo

CC1=C(/C=C/C(C)=C/C=C/C(C)=C/C=C/C=C(C)/C=C/C=C(C)/C=C/C2=C(C)CCCC2(C)C)C(C)(C)CCC1 [β-Carotene, all-E-β-carotene]
UVA induction of MMP-3 (HaCaT cells [1]; (Wertz, 2004)): downregulated | basal and 1O2-induced expression of MMP-1 (HaCaT cells [1]; (Wertz, 2004)): reduced | basal MMP-1 expression (HaCaT cells [1]; unirradiated (Wertz, 2004)): mildly reduces | basal expression of MMP-10, QRT-PCR in independent experiments (HaCaT cells [1]; unirradiated (Wertz, 2004)): confirmed | skin carcinogenesis [2]: reduced | UVA-induced GADD34 transcription (QRT-PCR) (HaCaT cells [3]; [7]): enhancement | UVA-induced GADD153 transcription (QRT-PCR) (HaCaT cells [3]; [7]): enhancement | MMP-10 induction by UVA/D2O (HaCaT cells [3]; UVA/D2O): dose-dependently inhibited | integrinα6 transcription (QRT-PCR) (HaCaT cells [3]; irradiated and unirradiated HaCaT cells, 5 hours after irradiation): confirmed downregulation; also recorded: inhibition | caspase-3 activity / apoptosis (caspase-3; unirradiated cells, β-carotene alone): not sufficient to induce apoptosis; also recorded: Neither UVA nor β-carotene alone activated caspase-3 | caspase-3 activity (caspase-3; β-carotene 2 days then UVA 270 kJ/m^2, 5 hours after irradiation): dose-dependent induction of caspase-3 activity | β-carotene concentration in medium dropped to [4]: approximately 50% | BPAG1; bullous pemphigoid antigen (M69225) change factor [5, 8]: Downregulation | C-FOS (V01512) change factor [5, 8]: 1.36 | ERF-2 (X78992) change factor [5, 8]: enhanced | GADD34 (U83981) change factor [5, 8]: enhanced | GADD153 (S62138) change factor [5, 8]: upregulation; also recorded: enhanced | IGF-BP 3; insulin-like growth factor-binding protein-3 gene (M35878) change factor [5, 8]: 1.73 | IL6; Interleukin 6; IFNβα2a (X04430) change factor [5, 8]: enhanced | ILK; integrin-linked kinase (U40282) change factor [5, 8]: Downregulation | JUND (X56681) change factor [5, 8]: 1.83 and 1.66 | KLF4; EZF (epithelial Zn finger) (U70663) change factor [5, 8]: upregulation | Lekti (AJ228139) change factor [5, 8]: upregulated | MMP10 (X07820) change factor [5, 8]: inhibited | PAR-2; proteinase activated receptor-2 (U34038) change factor [5, 8]: 1.34 | TDAG51; PQ-rich protein; PHLDA1 (Z50194) change factor [5, 8]: enhanced | TRIP14; ′2-5′ oligoadenylate synthetase (AJ225089) change factor [5, 8]: 0.67 | c-myc (V00568) change factor [5, 8]: 2.45 | connexin 31 (AF099730) change factor [5, 8]: upregulation | connexin 45 (U03493) change factor [5, 8]: Downregulation | integrin α6 (X53586) change factor [5, 8]: Downregulation | serpinB1 (M93056) change factor [5, 8]: upregulated | number of genes regulated by co-treatment with UVA radiation and β-carotene ([5]; UVA + β-carotene): 1142 genes | UVA induction of PAR-2 ([5]; UVA-irradiated keratinocytes): further increased | UVA upregulation of IFNα/Iβ targets ([5]; UVA-irradiated keratinocytes): reduced | UVA upregulation of VEGF ([5]; UVA-irradiated keratinocytes): reduced | desmocollins gene regulation ([5]; UVA/β-carotene treatment): Downregulation | TIMP-1 gene regulation ([5]; all treatments): not influenced | UVA-regulated genes for which β-carotene enhanced the UVA effect ([5]; of 568 UVA-regulated genes): 180 genes | UVA-regulated genes for which β-carotene had no effect ([5]; of 568 UVA-regulated genes): 245 genes | UVA-regulated genes for which β-carotene reduced the UVA-induced effect ([5]; of 568 UVA-regulated genes): 143 genes | co-treatment-regulated genes not regulated by only UVA or β-carotene alone ([5]; of the 1142 genes): 610 genes | Bax gene regulation ([5]; unirradiated keratinocytes): upregulated | JUN-B gene regulation ([5]; unirradiated keratinocytes): downregulated | VEGF gene regulation ([5]; unirradiated keratinocytes): mildly downregulated | BMP2a; bone morphogenetic protein 2a (bmp-2a) (M22489) change factor [5, 9]: downregulated | BPAG1; bullous pemphigoid antigen (M69225) change factor [5, 9]: decreased | BUB1; mitotic checkpoint kinase (AF053305) change factor [5, 9]: downregulated | COX-2, cyclooxygenase-2 (U04636) change factor [5, 9]: mildly downregulated | DNA ligase III (X84740) change factor [5, 9]: downregulated | EGFR; precursor of epidermal growth factor receptor (X00588) change factor [5, 9]: downregulated | ENDOGL-2 (AB020735) change factor [5, 9]: upregulated | FRA-2 (X16706) change factor [5, 9]: downregulated | GEM (U10550) change factor [5, 9]: downregulated | HOXD4 (X59373) change factor [5, 9]: downregulated | ID-2H (D13891) change factor [5, 9]: downregulated | IGF-BP 3; insulin-like growth factor-binding protein-3 gene (M35878) change factor [5, 9]: 0.22 | IL6; Interleukin 6; IFNβα2a (X04430) change factor [5, 9]: upregulated | IL18; IGIF (IFNγ inducing factor) (D49950) change factor [5, 9]: downregulated | IRF-9; p48; ISGF3γ; Interferon-stimulated transcription factor 3γ (M97935) change factor [5, 9]: −0.18 | KRS-2; stress responsive serine/threonine protein kinase (U60207) change factor [5, 9]: downregulated | MMP10 (X07820) change factor [5, 9]: reduced | NCF2; p67-phox; neutrophil oxidase factor (M32011) change factor [5, 9]: downregulated | NOTCH3 (U97669) change factor [5, 9]: downregulated | NRF2, subunit beta 1 (U13045) change factor [5, 9]: downregulated | RETSDR1; retinal short-chain dehydrogenase/reductase (AF061741) change factor [5, 9]: induced | RPA; replication protein A 14kda subunit (rpa) (L07493) change factor [5, 9]: −0.04 | Requiem (AF001433) change factor [5, 9]: upregulated | SMAD1 (U59423) change factor [5, 9]: −0.27 | TIEG, EGRα (AF050110) change factor [5, 9]: downregulated; also recorded: downregulation | TLR3; toll-like receptor 3 (U88879) change factor [5, 9]: upregulated | TRIP14; ′2-5′ oligoadenylate synthetase (AJ225089) change factor [5, 9]: −0.07 | TSSC3/IPL (AF001294) change factor [5, 9]: downregulation | WNT5A (I20861) change factor [5, 9]: downregulated | collagen type IV, α-5 (COL4A5) (M58526) change factor [5, 9]: decreased | integrin α6 (X53586) change factor [5, 9]: decreased | keratin 15 (J00124) change factor [5, 9]: decreased | number of genes regulated by β-carotene ([5]; β-carotene alone, change factor ≧0.5 or ≦−0.5, p ≦0.05): 381 genes | UV-induced immune suppression ([6]; (Fuller, 1992)): prevents | number of sunburn cells ([6]; β-carotene supplementation, humans (Garmyn, 1995)): did not alter | sunburn erythema after sun exposure ([6]; β-carotene supplementation, literature studies): alleviates; also recorded: mild reduction; also recorded: mildly reduces
